Measurements: PMC12073449, “Development of a Mechanism of Action-Reflective Cell-Based Reporter Gene Assay for Measuring Bioactivities of Therapeutic Glucagon-like Peptide-2 Analogues” (Molecules, 2025)
Ends that are not written are not given here.

Test system: HEK293-GLP-2R-Luc cells

HGEGTFSSELATILDALAARDFINWLIATKITDKKKKKK-NH2 [glepaglutide]
log2 (TD/Ctrl) CPEB2 (Qvalue 1.61 × 10^−6): 1.107
log2 (TD/Ctrl) GPAT3 (Qvalue 1.61 × 10^−6): 1.067
log2 (TD/Ctrl) LBH (Qvalue 1.62 × 10^−11): 1.387
log2 (TD/Ctrl) CSRNP1 (Qvalue 1.62 × 10^−22): 2.05
log2 (TD/Ctrl) USP36 (Qvalue 1.63 × 10^−11): 1.039
log2 (TD/Ctrl) DNER (Qvalue 1.71 × 10^−14): 3.018
log2 (TD/Ctrl) LOC102724428 (Qvalue 1.72 × 10^−7): 1.373
log2 (TD/Ctrl) RELB (Qvalue 1.72 × 10^−7): 1.9665
log2 (TD/Ctrl) BMF (Qvalue 1.77 × 10^−4): −1.178
log2 (TD/Ctrl) PBX1 (Qvalue 1.77 × 10^−11): −1.095
log2 (TD/Ctrl) TNFAIP3 (Qvalue 1.80 × 10^−7): 1.227
log2 (TD/Ctrl) SCN9A (Qvalue 1.83 × 10^−18): −1.8
log2 (TD/Ctrl) INPP5D (Qvalue 1.84 × 10^−5): −2.417
log2 (TD/Ctrl) ICAM5 (Qvalue 1.87 × 10^−4): 1.744
log2 (TD/Ctrl) ZNF503 (Qvalue 1.87 × 10^−11): −1.2971
log2 (TD/Ctrl) MFSD2A (Qvalue 1.88 × 10^−5): 1.193
log2 (TD/Ctrl) ADA (Qvalue 1.89 × 10^−4): 1.023
log2 (TD/Ctrl) SV2C (Qvalue 1.91 × 10^−39): 6.845
log2 (TD/Ctrl) ELL2 (Qvalue 1.93 × 10^−15): 1.192
log2 (TD/Ctrl) CD44 (Qvalue 1.93 × 10^−23): 2.115
log2 (TD/Ctrl) CYB5D2 (Qvalue 1.97 × 10^−6): −1.056
log2 (TD/Ctrl) DOK3 (Qvalue 2.01 × 10^−5): −1.636
log2 (TD/Ctrl) TFPI2 (Qvalue 2.01 × 10^−13): 2.377
log2 (TD/Ctrl) TUBB2A (Qvalue 2.02 × 10^−19): 1.401
log2 (TD/Ctrl) SERTAD1 (Qvalue 2.03 × 10^−14): 1.452
log2 (TD/Ctrl) TRIM47 (Qvalue 2.06 × 10^−4): 1.231
log2 (TD/Ctrl) CD68 (Qvalue 2.06 × 10^−17): 2.012
log2 (TD/Ctrl) FRMPD4 (Qvalue 2.07 × 10^−4): −1.078
log2 (TD/Ctrl) ETV4 (Qvalue 2.09 × 10^−50): 3.646
log2 (TD/Ctrl) TUBA4A (Qvalue 2.12 × 10^−4): 1.633
log2 (TD/Ctrl) SLC6A17 (Qvalue 2.12 × 10^−19): 2.784
log2 (TD/Ctrl) NAV2 (Qvalue 2.21 × 10^−5): 1.102
log2 (TD/Ctrl) SOX2 (Qvalue 2.21 × 10^−5): −1.189
log2 (TD/Ctrl) IL6R (Qvalue 2.27 × 10^−19): 1.742
log2 (TD/Ctrl) GPRC5A (Qvalue 2.28 × 10^−8): 1.328
log2 (TD/Ctrl) SLC25A25 (Qvalue 2.28 × 10^−9): 1.117
log2 (TD/Ctrl) UPP1 (Qvalue 2.29 × 10^−9): 1.296
log2 (TD/Ctrl) OLIG2 (Qvalue 2.31 × 10^−9): 2.054
log2 (TD/Ctrl) TNC (Qvalue 2.37 × 10^−34): 1.657
log2 (TD/Ctrl) GPR50 (Qvalue 2.38 × 10^−8): 2.002
log2 (TD/Ctrl) CPA4 (Qvalue 2.40 × 10^−4): 5.506
log2 (TD/Ctrl) FAM217B (Qvalue 2.42 × 10^−6): −1.106
log2 (TD/Ctrl) CCDC9 (Qvalue 2.50 × 10^−4): 1.137
log2 (TD/Ctrl) PLK3 (Qvalue 2.50 × 10^−4): 1.391
log2 (TD/Ctrl) TCIM (Qvalue 2.51 × 10^−19): 7.037
log2 (TD/Ctrl) NRP1 (Qvalue 2.55 × 10^−11): −1.191
log2 (TD/Ctrl) EPHA2 (Qvalue 2.56 × 10^−11): 1.303
log2 (TD/Ctrl) DUSP4 (Qvalue 2.57 × 10^−12): 1.926
log2 (TD/Ctrl) MAFF (Qvalue 2.58 × 10^−27): 3.639
log2 (TD/Ctrl) AMOT (Qvalue 2.58 × 10^−33): −1.62
log2 (TD/Ctrl) TNFRSF12A (Qvalue 2.59 × 10^−23): 2.183
log2 (TD/Ctrl) ZFP36 (Qvalue 2.68 × 10^−12): 1.676
log2 (TD/Ctrl) ARL14 (Qvalue 2.71 × 10^−4): 3.565
log2 (TD/Ctrl) JUNB (Qvalue 2.71 × 10^−23): 2.192
log2 (TD/Ctrl) C1GALT1C1 (Qvalue 2.74 × 10^−4): −1.022
log2 (TD/Ctrl) UBALD2 (Qvalue 2.76 × 10^−6): 1.053
log2 (TD/Ctrl) ZNF33B (Qvalue 2.82 × 10^−4): −1.021
log2 (TD/Ctrl) YPEL4 (Qvalue 2.87 × 10^−4): 2.621
log2 (TD/Ctrl) WNT5A (Qvalue 2.87 × 10^−7): −1.332
log2 (TD/Ctrl) FLNC (Qvalue 2.88 × 10^−7): 1.243
log2 (TD/Ctrl) NFIL3 (Qvalue 2.91 × 10^−8): 1.177
log2 (TD/Ctrl) TXNIP (Qvalue 2.97 × 10^−31): −1.9141
log2 (TD/Ctrl) GLA (Qvalue 2.98 × 10^−32): 1.68
log2 (TD/Ctrl) VAV1 (Qvalue 3.01 × 10^−4): 1.198
log2 (TD/Ctrl) RGS2 (Qvalue 3.01 × 10^−9): 1.337
log2 (TD/Ctrl) NREP (Qvalue 3.01 × 10^−13): −1.339
log2 (TD/Ctrl) B3GAT1 (Qvalue 3.15 × 10^−7): 1.485
log2 (TD/Ctrl) OLFM2 (Qvalue 3.15 × 10^−7): 1.732
log2 (TD/Ctrl) IL15RA (Qvalue 3.17 × 10^−4): 1.677
log2 (TD/Ctrl) TNFRSF9 (Qvalue 3.27 × 10^−6): 1.903
log2 (TD/Ctrl) RASD1 (Qvalue 3.31 × 10^−6): 2.273
log2 (TD/Ctrl) TSC22D3 (Qvalue 3.35 × 10^−6): 1.67
log2 (TD/Ctrl) MSANTD3-TMEFF1 (Qvalue 3.37 × 10^−6): 1.009
log2 (TD/Ctrl) SKIDA1 (Qvalue 3.39 × 10^−5): −1.407
log2 (TD/Ctrl) USH1C (Qvalue 3.44 × 10^−6): 2.547
log2 (TD/Ctrl) TMEM231 (Qvalue 3.45 × 10^−5): 1.1218
log2 (TD/Ctrl) COL12A1 (Qvalue 3.45 × 10^−9): 1.157
log2 (TD/Ctrl) BEGAIN (Qvalue 3.50 × 10^−4): 1.974
log2 (TD/Ctrl) PHLDA2 (Qvalue 3.51 × 10^−4): 1.79
log2 (TD/Ctrl) PCDH7 (Qvalue 3.52 × 10^−9): −1.185
log2 (TD/Ctrl) ULBP2 (Qvalue 3.54 × 10^−4): 1.312
log2 (TD/Ctrl) PHF21B (Qvalue 3.56 × 10^−4): 1.711
log2 (TD/Ctrl) JUN (Qvalue 3.59 × 10^−15): 1.216
log2 (TD/Ctrl) PIM1 (Qvalue 3.61 × 10^−6): 1.177
log2 (TD/Ctrl) CSGALNACT1 (Qvalue 3.63 × 10^−4): 2.392
log2 (TD/Ctrl) MN1 (Qvalue 3.74 × 10^−4): 1.348
log2 (TD/Ctrl) ATF3 (Qvalue 3.77 × 10^−12): 2.527
log2 (TD/Ctrl) CASP9 (Qvalue 3.78 × 10^−13): 1.439
log2 (TD/Ctrl) C11orf96 (Qvalue 3.88 × 10^−22): 4.461
log2 (TD/Ctrl) FHL3 (Qvalue 3.94 × 10^−5): 1.045
log2 (TD/Ctrl) MRC2 (Qvalue 4.00 × 10^−5): 1.244
log2 (TD/Ctrl) SH2D3C (Qvalue 4.00 × 10^−6): 2.239
